Values joined by “and” are separate entries in the source; they are usually repeats but may differ in a detail not shown here. Identical values can stand only once.
Columns and labels:
[1] = Urinary excretion after intravenous C3G; format: in vivo, Wistar rats
From the text: (§1) Twenty-two male Wistar rats (Rattus Norvegicus, Harlan Italy S.r.l.), of same age (15 weeks), 293–390 g of body weight, were used. The rats were randomly divided into 5 groups, according to the time that elapsed after intravenous administration of the test compound, and one control group. Each time point was represented by four biological replicates. All animals were allowed to acclimate to the animal facility of the University of Trieste for at least 2 week before studies were initiated. The experimental design was vetted and approved by the bioethical committee of the University of Trieste (internal code 140PAS14), according to the provisions of the European Community Council Directive 2010/63/EU[39]. The methods were carried out in accordance with the approved guidelines. The animals (n = 22) were maintained in cages in a room at 23 ± 2 °C, 50–60% humidity with a 12-hour light-dark cycle. The night before the experiment, food was withdrawn from the cages but water was given ad libitum. On the day of the experiment, the rats were anesthetized with intra-peritoneal administration of tiletamine/zolazepam (1:1, 25 mg/kg body weight) and xylazine (10 mg/kg body weight). During anaesthesia (10 min in all cases), the heart and ventilation rate were monitored. The rats were placed on their backs, with the ventral side up and with the legs spread separately on a thermo-isolated support. The penis was extruded by sliding the prepuce downwards. The dorsal penis vein was then seen along both sides of the penis and exactly 10 min after anaesthesia 0.2 mL PBS without (control group) or with (treated group) 668 nmol cyanidin 3-glucoside (C3G) in PBS was injected using a 24-G hypodermic needle. Then the injection site was pressed with a swab for a few seconds, and the glans was encouraged to retract to prevent further bleeding. One min before sacrificing the rats, sodium heparin (0.1 ml, 500 IU) was injected again into the dorsal penis vein, exposed in the same way. […] Blood draining and excision of the organs were carried out according to the literature. In detail, blood was collected from the neck of rats hold upside down, immediately after their decapitation, which happened at the time points sharp. Exsanguination took 5 seconds; laparotomy and excision of the liver and the kidneys took 5 more seconds. The post-decapitation procedures were standardised. Urine was collected through the urinary bladder with a syringe before decapitation. Kidneys, liver and brain were washed with mQ water, immediately frozen in liquid nitrogen and stored at −80 °C.
(§2) Immediately after sampling, 5 mL of blood were transferred into ice-cold (−20 °C), deoxygenated aqueous 95% methanol in a ratio 1:9 (v/v). The urine was weighted and transferred into ice-cold, deoxygenated aqueous 95% methanol at a ratio of 1:9 (w/v). Frozen kidneys, liver and brain were grounded under cryogenic conditions (−196 °C) to 5 μm particles in a CryoMill (Retsch, Germany), using a single 25 mm i. d. steel ball (30 seconds, 25/sec frequency). The pulverized tissue was rapidly transferred (without thawing) into ice-cold, deoxygenated aqueous 95% methanol at a ratio of 1:9 (w/v). Cinnamic acid-d5, as internal standard, was dissolved in the aqueous methanol at concentration of 0.1 mg/L for the monitoring of the extraction protocol in biofluids and tissues.
(§3) All samples were extracted with an orbital shaker for 10 min at room temperature. The methanol extracts were then centrifuged for 5 min at 3600 rpm at 4 °C, decanted under a stream of nitrogen in 50 mL dark glass vessels and stored at −80 °C. Clean-up of extracted samples in methanol was performed by solid phase extraction (SPE), as previously described. Briefly, 5 mL of extracted samples were evaporated on a rotary evaporator and reconstituted in 10 mL of acidified water. Anthocyanins were extracted by solid-phase adsorption onto a hydrophobic matrix (Sep-Pak C18, 0.35 g, Waters, Milford, MA). […]

[2] = Kidney concentrations and tissue pharmacokinetics after intravenous C3G; format: in vivo, Wistar rats
From the text: as §1, §2, §3

[3] = Brain concentrations and tissue pharmacokinetics after intravenous C3G; format: in vivo, Wistar rats
From the text: as §1, §2, §3

[4] = tested on: endothelial cell membrane; design: method as in PMID 22387282; settings: cited from earlier work
[5] = Liver concentrations and tissue pharmacokinetics after intravenous C3G; format: in vivo, Wistar rats
From the text: as §1, §2, §3

[6] = 0.25 min after i.v. 668 nmol C3G, mean ± SEM n=4

- Urine concentration ([1]; 0.25 min after i.v. 668 nmol C3G): 0.02 ± 0.01 nmol/g
- Urine concentration ([1]; 2 min after i.v. 668 nmol C3G): 2.69 ± 0.82 nmol/g
- Urine concentration ([1]; 5 min after i.v. 668 nmol C3G): 20.20 ± 2.61 nmol/g
- Injected dose recovered in urine ([1]; 5 min after the injection): 15%
- Urine concentration ([1]; 15 min after i.v. 668 nmol C3G): 11.95 ± 6.53 nmol/g
- Urine concentration ([1]; 20 min after i.v. 668 nmol C3G): 5.66 ± 1.31 nmol/g
- Amounts found in kidneys (range over sampling times) ([2]; 0.25–20 min after i.v. 668 nmol C3G): 0.44 to 1.69 nmol/g
- Mean concentration in kidneys [2, 6]: 1.69 ± 0.47 nmol/g
- Mean concentration in kidneys ([2]; 2 min after i.v. 668 nmol C3G): 1.40 ± 0.16 nmol/g
- Mean concentration in kidneys ([2]; 5 min after i.v. 668 nmol C3G): 0.58 ± 0.08 nmol/g
- Mean concentration in kidneys ([2]; 15 min after i.v. 668 nmol C3G): 0.57 ± 0.17 nmol/g
- Mean concentration in kidneys ([2]; 20 min after i.v. 668 nmol C3G): 0.44 ± 0.04 nmol/g
- MTTK (Mean Transit time in kidneys) ([2]; kidneys): 8.54 min
- AUC0-t ([2]; kidneys, i.v. 668 nmol C3G): 14.3 nmol·min/g and 14.32 nmol·min/g
- half-life ([2]; male, Wistar, rat, kidney, iv, 668 nmol, kidneys): 11.7 min
- Mean concentration in brain ([3]; 0.25 min after i.v. 668 nmol C3G, mean ± SEM n=4, corrected for residual blood): 40.46 ± 9.67 pmol/g
- Mean concentration in brain ([3]; 2 min after i.v. 668 nmol C3G): 7.48 ± 0.79 pmol/g
- Mean concentration in brain ([3]; 5 min after i.v. 668 nmol C3G): 7.05 ± 0.55 pmol/g
- Mean concentration in brain ([3]; 15 min after i.v. 668 nmol C3G): 2.18 ± 0.58 pmol/g
- Mean concentration in brain ([3]; 20 min after i.v. 668 nmol C3G): 2.21 ± 0.44 pmol/g
- MTTB (Mean Transit Time in the brain) ([3]; brain): 0.43 min
- AUC0-t ([3]; brain, i.v. 668 nmol C3G): 119.9 pmol·min/g and 119.89 pmol·min/g
- half-life ([3]; male, Wistar, rat, brain, iv, 668 nmol): 8.8 min
- concentration at 15 sec ([3]; male, Wistar, rat, brain, iv, 668 nmol, 15 sec after i.v., read-out: Corresponding brain concentration assuming free diffusion in a water compartment): ~50 nM
- Mean concentration in liver [5, 6]: 56.61 ± 11.79 pmol/g
- Mean concentration in liver ([5]; 2 min after i.v. 668 nmol C3G): 19.22 ± 1.99 pmol/g
- Mean concentration in liver ([5]; 5 min after i.v. 668 nmol C3G): 20.91 ± 2.61 pmol/g
- Mean concentration in liver ([5]; 15 min after i.v. 668 nmol C3G): 11.02 ± 2.24 pmol/g
- Mean concentration in liver ([5]; 20 min after i.v. 668 nmol C3G): 5.54 ± 0.33 pmol/g
- MTTL (Mean Transit Time in the liver) ([5]; liver): 1.43 min
- AUC0-t ([5]; liver, i.v. 668 nmol C3G): 345.3 pmol·min/g and 345.29 pmol·min/g
- half-life ([5]; male, Wistar, rat, liver, iv, 668 nmol, read-out: Half-life): 8.15 min
SMILES: OC[C@H]1O[C@@H](Oc2cc3c(O)cc(O)cc3[o+]c2-c2ccc(O)c(O)c2)[C@H](O)[C@@H](O)[C@@H]1O [C3G, Cyanidin-3-O-β-glucoside]
- Time frame to pass the endothelial cell membrane [4]: < 1 min
